Experimental data published in patent US20150140015A1, “METHODS AND PHARMACEUTICAL COMPOSITIONS FOR THE TREATMENT OF PANCREATIC CANCER” (INSERM (Institut National de la Sante et de la Recherche …, priority 2013, published 2015).

Assays:
parental HPAF-II cells = test: Quantification of apoptotic cells by annexin V-PE labeling in parental HPAF-II cells; assay type: cell-based, human; details: 1 μM orexin-A
Protocol: (§1) FIGS. 5A and B. Effect of orexin-A on apoptosis in OX1R expressing recombinant OX1R/HPAF-II cells. A, Parental HPAF-II and recombinant OX1R/HPAF-II cells were challenged with (black bars) or without (white bars) 1 μM orexin-A for 48 hr in the absence or presence of the SHP-2 protein tyrosine phosphatase inhibitor, NSC-87877 (50 μM). Apoptosis was measured by determination of annexin V-PE binding. Results are expressed as the percentage of apoptotic cells, and are the means±SE of three separate experiments. ***p<0.001; ns, non-significant; B, paraformaldehyde-fixed HPAF-II cells and recombinant OX1R/HPAF-II cells were challenged with or without (Basal) 1 μM orexin-A for 48 hr. Indirect immunostaining of activated caspase-3 in parental HPAF-II cells (left panels) and recombinant OX1R/HPAF-II cells (right panels) in the presence (bottom panels) or tabsence (top panels) of orexin-A is illustrated in B.
AsPC-1, SW 1990, HPAF-II and HPAF-II/hOX1R cells (seeded at 5×10^4 cells/well) were grown in 24-well plates for 24 hr under the culture conditions described above. The culture medium was then replaced every 24 hr with fresh medium with or without orexin-A (GL Biochemicals) at a concentration of 1 μM in the presence or absence of the SHP-2 inhibitor, NSC-87877 (50 μM) (Calbiochem, VWR International SAS, France). At the end of the treatment (48 hr), apoptotic cells were determined using the Guava Nexin™ kit (Guava Technologies, Hayward, Calif., USA), which discriminates between apoptotic and non-apoptotic cells (Rouet-Benzineb P, Rouyer-Fessard C, Jarry A, et al. Orexins Acting at Native OX1 Receptor in Colon Cancer and Neuroblastoma Cells or at Recombinant OX1 Receptor Suppress Cell Growth by Inducing Apoptosis. J Biol Chem 2004; 279:45875-86), analyzed with the Guava Personal Cell Analysis (PCA) system (Merck-Millipore, Guyancourt, France), and counted (2,000 events) (Voisin et al, 2008, as above). Results are expressed as the percentage of apoptotic phycoerythrin-labelled Annexin V (Annexin V-PE) positive cells and are the means of 3 independent analyses.

[1] = test system: HPAF-II cells expressing recombinant OX1R; test: Quantification of apoptotic cells by annexin V-PE labeling in recombinant OX1R/HPAF-II cells; assay type: cell-based, human; details: 1 μM orexin-A, 48 hr; recombinant HPAF-II expressing OX1R
Protocol: as §1, with “in B. […]” for “in B.”
AsPC-1, SW 1990, HPAF-II and HPAF-II/hOX1R cells (seeded at 5×10^4 cells/well) were grown in 24-well plates for 24 hr under the culture conditions described above. […] Results are expressed as the percentage of apoptotic phycoerythrin-labelled Annexin V (Annexin V-PE) positive cells and are the means of 3 independent analyses.

orexin-A: 33 amino acid hypothalamic neuropeptide, OX1R agonist, SEQ ID NO:2; peptide from GL Biochemicals
induction of apoptosis (parental HPAF-II cells; 48 hr, untransfected parental HPAF-II cells): did not induce apoptosis | annexin-V positive apoptotic cells (parental HPAF-II cells; untransfected cells): 2.1%±0.4 | annexin-V positive apoptotic cells [1]: 17.8%
